Where no end group is shown, it is not given here.
Tests used:
[1] = system: growth-phase hair follicles; experiment: Growth-phase hair follicle inhibitory effects of endothelin, count of hair shafts; type: in vivo, guinea pig; conditions: 1 μg intracutaneously, 50 μL/site, fifth day after the administration
Description: Solutions (1 μg, each) of endothelin-1, endothelin-2 and endotherin-3 in aliquots of phosphate buffer solution (PBS), which contained 0.1% of bovine serum albumin (BSA), were intracutaneously administered (at 50 μL/site) to the dorsal parts of guinea pigs, respectively, from which hair had been cut off by a hair clipper. Three days after the administration, hair was again cut off by a hair clipper from the administered sites. Two days after the cutting, the numbers of hair shafts grown per unit area at the administered sites were counted.

[2] = system: dorsal part of a guinea pig; experiment: Depilation inducing effects of endothelin, intracutaneous administration; type: in vivo; conditions: 0.3 μg intracutaneously, 50 μL/site, 10 days after the administration
Description: (§1) A solution of endothelin-1 (0.3 μg) in phosphate buffer solution (PBS), which contained 0.1% of bovine serum albumin (BSA), was intracutaneously administered (at 50 μL/site) to the dorsal part of a guinea pig.

[3] = system: C3H/HeNCrj mouse; experiment: Hair growth test in mice; type: in vivo; conditions: 0.5 mg in 2.5 mL PEG 400/PEG 3350 (95/5), 25 μL/application once a day over 2 weeks, applied to depilated dorsal skin
Description: Endothelin-1 (0.5 mg) was dissolved in a mixed solution (2.5 mL) of polyethylene glycol 400 (average molecular weight: 400) and polyethylene glycol 3350 (average molecular weight: 3,350) (mixing ratio: 95/5) to prepare a hair growth inhibitor. Dorsal hair of each 8-week old C3H/HeNCrj mouse was removed with a depilatory cream (over an area of 2×4 cm^2), and the hair growth inhibitor was applied to the depilated site once a day at a dose of 25 μL/application over 2 weeks. A group in which only the solvent was similarly applied was employed as a control group. To observe regrowth of hair, the above-described depilated site on day 14 after the depilation was photographed at a predetermined fixed magnification, and the percentage of a regrown hair area (regrown hair area/depilated area×100) was determined using an image analyzer.

[4] = system: endothelin-induced depilation spot; experiment: Concurrent administration of endothelin inhibitor on the endothelin-induced formation of depilation spot; type: in vivo, guinea pig; conditions: 10 days after the administration; endothelin-1 0.3 μg, PD142893 10 μg, intracutaneous
Description: As described in Example 1, endothelin (0.3 μg) was intracutaneously administered to the dorsal part of each guinea pig, and PD142893 (10 μg) as an endothelin inhibitor was also administered concurrently.
The size of a depilation spot formed 10 days after the administration was determined in terms of a product of its long diameter and short diameter.

[5] = system: hair follicle organs in growth phase from a human scalp tissue; experiment: Growth inhibitory effects on organ-cultured hair follicles; type: cell-based
Description: From a human scalp tissue, hair follicle organs in growth phase were surgically isolated under a stereomicroscope. Following a conventional procedure [Philpott M. P., et al., J. Cell Sci., 97, 463-471 (1990)], the isolated hair follicles were subjected to organ culture. Described specifically, endothelin-1 was added to William's E medium which contained L-glutamine (2 mM), hydrocortisone (10 ng/mL), insulin (10 μg/mL), sodium selenite (10 ng/mL) and transferrin (10 μg/mL).

[6] = system: growth-phase hair follicle; experiment: Structural changes of hair follicle structure by the administration of endothelin, hematoxylin-eosin staining; type: in vivo, guinea pig; conditions: 0.3 μg intracutaneously
Description: as §1, with “1.1%” for “0.1%”, “pig. After that, samples were collected day after day from the administered dorsal skin, and tissue samples were prepared by hematoxylin-eosin staining.” for “pig.”

endothelin-2 (CSCSSWLDKECVYFCHLDIIW; ends and bridges not checked; cysteine pairing not given here; UniProt P20800 49-69, looked up) [peptide composed of 21 amino acid residues; isoform of endothelin]
number of hair shafts grown per unit area at the administered site [1]: significant (p<0.01) decrease in the number of hair shafts

CC[C@H](C)[C@H](NC(=O)[C@H](CC(=O)O)NC(=O)[C@H](CC(C)C)NC(=O)[C@H](Cc1c[nH]cn1)NC(=O)[C@@H]1CSSC[C@H](N)C(=O)N[C@@H](CO)C(=O)N[C@H]2CSSC[C@H](NC(=O)[C@H](CCC(=O)O)NC(=O)[C@H](CCCCN)NC(=O)[C@H](CC(=O)O)NC(=O)[C@H](CCSC)NC(=O)[C@H](CC(C)C)NC(=O)[C@H](CO)NC(=O)[C@H](CO)NC2=O)C(=O)N[C@@H](C(C)C)C(=O)N[C@@H](Cc2ccc(O)cc2)C(=O)N[C@@H](Cc2ccccc2)C(=O)N1)C(=O)N[C@H](C(=O)N[C@@H](Cc1c[nH]c2ccccc12)C(=O)O)[C@@H](C)CC [Endothelin-1, endothelin-1]
observation at the administered site (depilation) [2]: hair shaft falling-off and formation of a marked depilation spot
Percentage of regrown hair area on day 14 after depilation [3]: 2.22%
Product of long diameter and short diameter of depilation spot (mean ± S.D., N = 6) [4]: 81.47 ± 6.53 mm^2
percent regression of growth-phase hair follicles ([5]; 10 ng/mL added endothelin, Day 1 of incubation): 0.0%
percent regression of growth-phase hair follicles ([5]; 10 ng/mL added endothelin, Day 2 of incubation): 0.0%
percent regression of growth-phase hair follicles ([5]; 10 ng/mL added endothelin, Day 4 of incubation): 17.6%
percent regression of growth-phase hair follicles ([5]; 10 ng/mL added endothelin, Day 6 of incubation): 35.3%
percent regression of growth-phase hair follicles ([5]; 100 ng/mL added endothelin, Day 1 of incubation): 0.0%
percent regression of growth-phase hair follicles ([5]; 100 ng/mL added endothelin, Day 2 of incubation): 0.0%
percent regression of growth-phase hair follicles ([5]; 100 ng/mL added endothelin, Day 4 of incubation): 23.5%
percent regression of growth-phase hair follicles ([5]; 100 ng/mL added endothelin, Day 6 of incubation): 41.2%
grown hair follicle lengths compared with control group ([5]; day 4 of incubation and the subsequent days (FIG. 3)): significant hair growth inhibitory effects
structural change of incubated hair follicles ([5]; during the incubation period (FIG. 4)): structural change of the endothelin-treated, growth-phase hair follicles into those similar to resting-phase hair follicles
histological image of hair follicle ([6]; 1st day after the administration): regressed image of a growth-phase hair follicle
histological image of hair follicle ([6]; 3rd day after the administration): image of a follicular tissue in transition phase
number of hair shafts grown per unit area at the administered site [1]: significant (p<0.01) decrease in the number of hair shafts

endothelin-3 (CTCFTYKDKECVYYCHLDIIW; ends and bridges not checked; cysteine pairing not given here; UniProt P14138 97-117, looked up) [endotherin-3, peptide composed of 21 amino acid residues; isoform of endothelin]
number of hair shafts grown per unit area at the administered site [1]: significant (p<0.01) decrease in the number of hair shafts

From US7468421B2, “Depilatories and agents for external use” (Kao Corporation, priority 1999, dated 2008)
